# In patent US8168679B2, “Salts of Tramadol and Naproxen and their crystal forms in the treatment of pain” (Laboratorios del Dr. Esteve, S.A., priority 2007, dated 2012):
# Structures can show the parent of a compound that is named as a salt.
# How the values were obtained:
# [1] = Determination of the hygroscopicity of the crystalline salts (weight variation and Karl Fischer in humidity chamber); type: physicochemical; settings: for KF (t = 0): Karl Fischer value at the beginning of the study; for KF (t = 6 days): Karl Fischer value at the end of the study, 6 days in humidity chamber; for hygroscopicity according to the scale: class by % incorporation of water; for Δ % weigth 24 h / Δ % weigth 48 h / Δ % weigth 6 days: humidity chamber, 64% relative humidity, 25±2° C.
# Description: The objective was to measure the hygroscopicity of the salts of the present invention, and comparing it with the one of the known salt of each counter part of the salts. The increasing of the weight will be measured in order to evaluate the incorporation of water in the samples, together with the Karl Fischer factor.
# According to “Technical guide for the elaboration of monographs” special issue PharmaEuropa, 3rd ed., December 1999, the hygroscopicity is defined based on the augmentation of weight after 24 hours of exposition to 80% of relative humidity at 25° C. The scale is the following:
# Methods: • Preparation of the Humidity chamber: A supersaturated solution of sodium nitrite (45 g/50 ml) is prepared and introduced in a humidification chamber (samplaterecord). The chamber is maintained at a temperature of 25±2° C. during 24 hours before use, and humidity is controlled each day. […] 102.2 mg of sodium naproxen. • The samples are introduced in the conditioned humidity chamber, and the weight is controlled after 24 hours, 48 hours, and 6 days, till an equilibrium is reached (2 successive control with a variation of weight less than 0.2 mg). • The Karl Fischer is also determined (using a Methrom 756 KF) at the beginning and at the end of the study.
# The variation of the weight is controlled and the following percentage is calculated: Δ% weigth=(Pn−P1)/P1×100 wherein: P1 is the initial weight, Pn is the weight measured for the sample.
# [2] = tested on: TNBS-induced colonic hypersensitivity; test: TNBS-induced colonic hypersensitivity (visceral pain model, colonic distension); type: in vivo, Male Sprague-Dawley rats; settings: rats, day 7 after TNBS, 5 mg/kg orally, FIG. 12
# Description: The effect of the salts of the present invention on pain is measured in a model of visceral pain well known in the art: the TNBS-induced colonic hypersensitivity. In this model, the injection of trinitrobenzene sulfonic acid (TNBS) into the proximal colon provoke chronic colonic hypersensitivity, measured in conscious rats by a decreased pain threshold in response to colonic distension.
# The animals are Male Sprague-Dawley rats (360-400 g, France). They were housed in a temperature (19.5° C. 24.5° C.) and relative humidity (45%-65%) controlled room with a 12 h—light/dark cycle, with ad libitum access to standard pelleted laboratory chow and water throughout the study.
# Fasted (24 hours) animals were undergoing surgery for administration of TNBS (50 mg/kg) into the proximal part of the colon. […]
# Day 7 after TNBS injection: Compounds were administered and the colonic hypersensitivity due to TNBS-induced colonic inflammation was measured before the treatment, and at t=20, 45, 90 and 120 min after treatment. […]
# The 95% confidence intervals of each of the arithmetic means were also calculated.
# Statistical significance between the treated groups and the vehicle-treated group was determined by a two-way repeated measures ANOVA followed, when F-value is significant, by an appropriate post-hoc comparison (Bonferroni's test) using SigmaStat software.
molecule,measurement,setting,value
COc1ccc2cc([C@H](C)C(=O)[O-])ccc2c1.[Na+] [sodium naproxen],KF (t = 0),[1],1.04
same,KF (t = 6 days),[1],12.65
same,hygroscopicity according to the scale,[1],hygroscopic
same,Δ % weigth 24 h,[1],14.39%
same,Δ % weigth 48 h,[1],14.39%
same,Δ % weigth 6 days,[1],14.3%
"(R,R)-Tramadol-(S)-Naproxene Salt [Example 2]",colonic threshold (pain threshold to colonic distension),[2]; 20-120 min after treatment,nearly recovering the same level of colonic threshold than the naive animal
same,anti-hypersensitive effect compared with the corresponding combination (Combo-02),[2],superior effect
COc1cccc(C2(O)CCCCC2CN(C)C)c1 (centres unmarked) [tramadol hydrochloride],KF (t = 0),[1],0.45
same,KF (t = 6 days),[1],0.23
same,hygroscopicity according to the scale,[1],slightly hygroscopic
same,Δ % weigth 24 h,[1],0.19%
same,Δ % weigth 48 h,[1],0.26%
same,Δ % weigth 6 days,[1],0.18%
